Test system: Aspergillus
Excerpt: Compounds such as calcofluor can be used for visualizing a broad range of medically relevant fungi under the microscope, due to their specific nature of binding, high level fluorescence (detectable under the microscope) and low binding to patient tissue. Calcofluor is a fairly non-toxic compound that is used to dye clothes, due to its high affinity for cellulose-containing cotton fibers. It has also been used to follow ground water migration due to its fluorescent properties and low toxicity.

O=S(=O)([O-])c1cc(Nc2nc(Nc3ccccc3)nc(N(CCO)CCO)n2)ccc1C=Cc1ccc(Nc2nc(Nc3ccccc3)nc(N(CCO)CCO)n2)cc1S(=O)(=O)[O-].[Na+].[Na+] [calcofluor]
recovery of injected compound in lung tissue (in vivo): could be recovered in harvested lung tissue | fluorescent staining of fungal hyphae in lung tissue (microscope, lung tissue removed from subject infected with Aspergillus): demonstrated fluorescent fungal hyphal forms under the microscope

Source: patent publication US10383960B2, “Small molecule imaging of fungi by positron emission tomography scanning” (The United States of America, as represented by the …, priority 2013, dated 2019)
